{"source": "patent US20220281848A1", "about": "“PYRAZOLE-SUBSTITUTED PYRROLIDINONES AS HERBICIDES” (FMC Corporation, priority 2019, published 2022)", "system": "plants", "experiment": "Test D pre-emergence, other plants of Tables D1 and D3", "type": "in vivo", "details": "for damage to plant (100=total damage to plant; 0=no damage to plant), SORVU: preemergent, 20 DAA; for damage to plant, ALOMY / damage to plant, AVEFA / damage to plant, BEAVA / damage to plant, BROTE / damage to plant, BRSNN / damage to plant, CHEAL / damage to plant, GALAP / damage to plant, HORVW / damage to plant, KCHSC / damage to plant, LOLPE / damage to plant, POAAN / damage to plant, POLCO / damage to plant, SINAR / damage to plant, STEME / damage to plant, VERPE: pre-emergence, 100=total damage, 0=no damage", "outline": "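Seeds treated with herbicide safener; sown in soil; glasshouse, 16 h light, 65% humidity. Sprayed day 1 (pre) or ~day 12 (post). Spray in 0.2% v/v adjuvant. Scored 0–100 damage: 20 DAA pre, 15 d post.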"}
{"smiles": "CCn1nc([C@@H]2CN(C)C(=O)[C@H]2C(=O)Nc2cccc(F)c2F)c2cccc(F)c21", "note": "[Compound 14]", "values": [{"measurement": "damage to plant (100=total damage to plant; 0=no damage to plant), SORVU", "setting": "rate 130", "result": 0}, {"measurement": "damage to plant (100=total damage to plant; 0=no damage to plant), SORVU", "setting": "rate 250", "result": 0}, {"measurement": "damage to plant (100=total damage to plant; 0=no damage to plant), SORVU", "setting": "rate 500", "result": 30}, {"measurement": "damage to plant, ALOMY", "setting": "rate 15, 20 DAA", "result": 0}, {"measurement": "damage to plant, AVEFA", "setting": "rate 15, 20 DAA", "result": 0}, {"measurement": "damage to plant, BEAVA", "setting": "rate 15, 20 DAA", "result": 0}, {"measurement": "damage to plant, BROTE", "setting": "rate 15, 20 DAA", "result": 0}, {"measurement": "damage to plant, BRSNN", "setting": "rate 15, 20 DAA", "result": 0}, {"measurement": "damage to plant, CHEAL", "setting": "rate 15, 20 DAA", "result": 0}, {"measurement": "damage to plant, GALAP", "setting": "rate 15, 20 DAA", "result": 0}, {"measurement": "damage to plant, HORVW", "setting": "rate 15, 20 DAA", "result": 0}, {"measurement": "damage to plant, KCHSC", "setting": "rate 15, 20 DAA", "result": 0}, {"measurement": "damage to plant, LOLPE", "setting": "rate 15, 20 DAA", "result": 0}, {"measurement": "damage to plant, POAAN", "setting": "rate 15, 20 DAA", "result": 0}, {"measurement": "damage to plant, POLCO", "setting": "rate 15, 20 DAA", "result": 0}, {"measurement": "damage to plant, SINAR", "setting": "rate 15, 20 DAA", "result": 0}, {"measurement": "damage to plant, STEME", "setting": "rate 15, 20 DAA", "result": 0}, {"measurement": "damage to plant, VERPE", "setting": "rate 15, 20 DAA", "result": 0}, {"measurement": "damage to plant, ALOMY", "setting": "rate 30, 20 DAA", "result": 0}, {"measurement": "damage to plant, AVEFA", "setting": "rate 30, 20 DAA", "result": 0}, {"measurement": "damage to plant, BEAVA", "setting": "rate 30, 20 DAA", "result": 0}, {"measurement": "damage to plant, BROTE", "setting": "rate 30, 20 DAA", "result": 0}, {"measurement": "damage to plant, BRSNN", "setting": "rate 30, 20 DAA", "result": 0}, {"measurement": "damage to plant, CHEAL", "setting": "rate 30, 20 DAA", "result": 0}, {"measurement": "damage to plant, GALAP", "setting": "rate 30, 20 DAA", "result": 0}, {"measurement": "damage to plant, HORVW", "setting": "rate 30, 20 DAA", "result": 0}, {"measurement": "damage to plant, KCHSC", "setting": "rate 30, 20 DAA", "result": 0}, {"measurement": "damage to plant, LOLPE", "setting": "rate 30, 20 DAA", "result": 0}, {"measurement": "damage to plant, POAAN", "setting": "rate 30, 20 DAA", "result": 0}, {"measurement": "damage to plant, POLCO", "setting": "rate 30, 20 DAA", "result": 0}, {"measurement": "damage to plant, SINAR", "setting": "rate 30, 20 DAA", "result": 0}, {"measurement": "damage to plant, STEME", "setting": "rate 30, 20 DAA", "result": 0}, {"measurement": "damage to plant, VERPE", "setting": "rate 30, 20 DAA", "result": 0}, {"measurement": "damage to plant, ALOMY", "setting": "rate 60, 20 DAA", "result": 0}, {"measurement": "damage to plant, AVEFA", "setting": "rate 60, 20 DAA", "result": 0}, {"measurement": "damage to plant, BEAVA", "setting": "rate 60, 20 DAA", "result": 0}, {"measurement": "damage to plant, BROTE", "setting": "rate 60, 20 DAA", "result": 0}, {"measurement": "damage to plant, BRSNN", "setting": "rate 60, 20 DAA", "result": 0}, {"measurement": "damage to plant, CHEAL", "setting": "rate 60, 20 DAA", "result": 0}, {"measurement": "damage to plant, GALAP", "setting": "rate 60, 20 DAA", "result": 0}, {"measurement": "damage to plant, HORVW", "setting": "rate 60, 20 DAA", "result": 0}, {"measurement": "damage to plant, KCHSC", "setting": "rate 60, 20 DAA", "result": 0}, {"measurement": "damage to plant, LOLPE", "setting": "rate 60, 20 DAA", "result": 30}, {"measurement": "damage to plant, POAAN", "setting": "rate 60, 20 DAA", "result": 0}, {"measurement": "damage to plant, POLCO", "setting": "rate 60, 20 DAA", "result": 10}, {"measurement": "damage to plant, SINAR", "setting": "rate 60, 20 DAA", "result": 0}, {"measurement": "damage to plant, STEME", "setting": "rate 60, 20 DAA", "result": 0}, {"measurement": "damage to plant, VERPE", "setting": "rate 60, 20 DAA", "result": 0}, {"measurement": "damage to plant, ALOMY", "setting": "rate 130, 20 DAA", "result": 0}, {"measurement": "damage to plant, AVEFA", "setting": "rate 130, 20 DAA", "result": 10}, {"measurement": "damage to plant, BEAVA", "setting": "rate 130, 20 DAA", "result": 0}, {"measurement": "damage to plant, BROTE", "setting": "rate 130, 20 DAA", "result": 0}, {"measurement": "damage to plant, BRSNN", "setting": "rate 130, 20 DAA", "result": 0}, {"measurement": "damage to plant, CHEAL", "setting": "rate 130, 20 DAA", "result": 0}, {"measurement": "damage to plant, GALAP", "setting": "rate 130, 20 DAA", "result": 0}, {"measurement": "damage to plant, HORVW", "setting": "rate 130, 20 DAA", "result": 10}, {"measurement": "damage to plant, KCHSC", "setting": "rate 130, 20 DAA", "result": 0}, {"measurement": "damage to plant, LOLPE", "setting": "rate 130, 20 DAA", "result": 40}, {"measurement": "damage to plant, POAAN", "setting": "rate 130, 20 DAA", "result": 20}, {"measurement": "damage to plant, POLCO", "setting": "rate 130, 20 DAA", "result": 20}, {"measurement": "damage to plant, SINAR", "setting": "rate 130, 20 DAA", "result": 0}, {"measurement": "damage to plant, STEME", "setting": "rate 130, 20 DAA", "result": 0}, {"measurement": "damage to plant, VERPE", "setting": "rate 130, 20 DAA", "result": 0}, {"measurement": "damage to plant, ALOMY", "setting": "rate 250, 20 DAA", "result": 10}, {"measurement": "damage to plant, AVEFA", "setting": "rate 250, 20 DAA", "result": 30}, {"measurement": "damage to plant, BEAVA", "setting": "rate 250, 20 DAA", "result": 0}, {"measurement": "damage to plant, BROTE", "setting": "rate 250, 20 DAA", "result": 10}, {"measurement": "damage to plant, BRSNN", "setting": "rate 250, 20 DAA", "result": 0}, {"measurement": "damage to plant, CHEAL", "setting": "rate 250, 20 DAA", "result": 0}, {"measurement": "damage to plant, GALAP", "setting": "rate 250, 20 DAA", "result": 0}, {"measurement": "damage to plant, HORVW", "setting": "rate 250, 20 DAA", "result": 60}, {"measurement": "damage to plant, KCHSC", "setting": "rate 250, 20 DAA", "result": 0}, {"measurement": "damage to plant, LOLPE", "setting": "rate 250, 20 DAA", "result": 50}, {"measurement": "damage to plant, POAAN", "setting": "rate 250, 20 DAA", "result": 80}, {"measurement": "damage to plant, POLCO", "setting": "rate 250, 20 DAA", "result": 50}, {"measurement": "damage to plant, SINAR", "setting": "rate 250, 20 DAA", "result": 0}, {"measurement": "damage to plant, STEME", "setting": "rate 250, 20 DAA", "result": 10}, {"measurement": "damage to plant, VERPE", "setting": "rate 250, 20 DAA", "result": 0}, {"measurement": "damage to plant, ALOMY", "setting": "rate 500, 20 DAA", "result": 70}, {"measurement": "damage to plant, AVEFA", "setting": "rate 500, 20 DAA", "result": 60}, {"measurement": "damage to plant, BEAVA", "setting": "rate 500, 20 DAA", "result": 10}, {"measurement": "damage to plant, BROTE", "setting": "rate 500, 20 DAA", "result": 50}, {"measurement": "damage to plant, BRSNN", "setting": "rate 500, 20 DAA", "result": 10}, {"measurement": "damage to plant, CHEAL", "setting": "rate 500, 20 DAA", "result": 50}, {"measurement": "damage to plant, GALAP", "setting": "rate 500, 20 DAA", "result": 0}, {"measurement": "damage to plant, HORVW", "setting": "rate 500, 20 DAA", "result": 90}, {"measurement": "damage to plant, KCHSC", "setting": "rate 500, 20 DAA", "result": 0}, {"measurement": "damage to plant, LOLPE", "setting": "rate 500, 20 DAA", "result": 80}, {"measurement": "damage to plant, POAAN", "setting": "rate 500, 20 DAA", "result": 80}, {"measurement": "damage to plant, POLCO", "setting": "rate 500, 20 DAA", "result": 80}, {"measurement": "damage to plant, SINAR", "setting": "rate 500, 20 DAA", "result": 0}, {"measurement": "damage to plant, STEME", "setting": "rate 500, 20 DAA", "result": 60}, {"measurement": "damage to plant, VERPE", "setting": "rate 500, 20 DAA", "result": 20}]}
